{"source": "patent US7964591B2", "about": "“Pyridazine derivatives and their use as therapeutic agents” (Novartis Pharma AG, priority 2003, dated 2011)"}
{"biological_target": "T1, stearoyl-CoA desaturase (SCD) (Mus musculus, UniProt P13516)", "T1 sequence (P13516 1-355)": "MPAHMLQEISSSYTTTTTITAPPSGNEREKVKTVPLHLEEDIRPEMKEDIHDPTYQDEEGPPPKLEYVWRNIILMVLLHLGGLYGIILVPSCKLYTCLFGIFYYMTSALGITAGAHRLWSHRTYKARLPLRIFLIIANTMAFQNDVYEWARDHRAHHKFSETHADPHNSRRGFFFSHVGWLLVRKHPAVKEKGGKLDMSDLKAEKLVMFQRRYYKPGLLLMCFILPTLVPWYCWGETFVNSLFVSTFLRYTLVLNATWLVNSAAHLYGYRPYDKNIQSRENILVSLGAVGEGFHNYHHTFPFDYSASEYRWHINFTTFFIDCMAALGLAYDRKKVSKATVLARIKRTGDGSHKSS", "assay": "Stearoyl-CoA desaturase inhibition using mouse liver microsomes (HTS microsomal assay, IC50 follow-up)", "conditions": "% SCD enzyme activity remaining at 10 μM test compound", "units": {"Mouse Microsome 10% remaining @ 10 μM": "%"}, "method": "Livers are immediately rinsed with cold 0.9% NaCl solution, weighed and minced with scissors. All procedures are performed at 4° C. unless specified otherwise. Livers are homogenized in a solution (1:3 w/v) containing 0.25 M sucrose, 62 mM potassium phosphate buffer (pH 7.0), 0.15 M KCl, 1.5 mM N-acetyleysteine, 5 mM MgCl2, and 0.1 mM EDTA using 4 strokes of a Potter-Elvehjem tissue homogenizer. The homogenate is centrifuged at 10,400×g for 20 min to eliminate mitochondria and cellular debris. The supernatant is filtered through a 3-layer cheesecloth and centrifuged at 105,000×g for 60 min. The microsomal pellet is gently resuspended in the same homogenization solution with a small glass/teflon homogenizer and stored at −70° C. The absence of mitochondrial contamination is enzymatically assessed. The protein concentration is measured using bovine serum albumin as the standard.\nThe tubes are vortexed vigorously and after 15 min incubation in a shaking water bath (37° C.), the reactions are stopped and fatty acids are analyzed.\nFatty acids are analyzed as follows: The reaction mixture is saponified with 10% KOH to obtain free fatty acids which are further methylated using BF3 in methanol. […] Fatty acid methyl esters are separated isocratically with acetonitrile/water (95:5 v:v) at a flow rate of 1 mL/min and are identified by comparison with authentic standards.\nThe compounds are analyzed with an HTS microsomal assay. The activities are defined in terms of % SCD enzyme activity remaining at the selected concentration (e.g., 10 μM) of the test compounds."}
{"smiles": "O=C(NCCc1ccccc1)Nc1ccc(N2CCN(C(=O)c3ccccc3C(F)(F)F)CC2)nn1", "Mouse Microsome 10% remaining @ 10 μM": 15}
{"smiles": "O=C(Nc1ccc(N2CCN(C(=O)c3ccccc3C(F)(F)F)CC2)nn1)Nc1ccccc1F", "note": "[1-(2-FLUOROPHENYL)-3-{6-[4-(2-TRIFLUOROMETHYLBENZOYL)PIPERAZIN-1-YL]-PYRIDAZIN-3-YL}UREA]", "Mouse Microsome 10% remaining @ 10 μM": 73}
{"smiles": "O=C(NCc1ccc(F)cc1)Nc1ccc(N2CCN(C(=O)c3ccccc3C(F)(F)F)CC2)nn1", "note": "[1-(4-FLUOROBENZYL)-3-{6-[4-(2-TRIFLUOROMETHYLBENZOYL)PIPERAZIN-1-YL]-PYRIDAZIN-3-YL}UREA]", "Mouse Microsome 10% remaining @ 10 μM": 6}
{"smiles": "O=C(Nc1ccc(F)cc1)Nc1ccc(N2CCN(C(=O)c3ccccc3C(F)(F)F)CC2)nn1", "note": "[1-(4-FLUOROPHENYL)-3-{6-[4-(2-TRIFLUOROMETHYLBENZOYL)PIPERAZIN-1-YL]-PYRIDAZIN-3-YL}UREA]", "Mouse Microsome 10% remaining @ 10 μM": 82}
{"smiles": "O=C(NCc1ccccc1)Nc1ccc(N2CCN(C(=O)c3ccccc3C(F)(F)F)CC2)nn1", "note": "[1-BENZYL-3-{6-[4-(2-TRIFLUOROMETHYLBENZOYL)PIPERAZIN-1-YL]PYRIDAZIN-3-YL}UREA]", "Mouse Microsome 10% remaining @ 10 μM": 8}
{"smiles": "CCCCNC(=O)Nc1ccc(N2CCN(C(=O)c3ccccc3C(F)(F)F)CC2)nn1", "note": "[1-BUTYL-3-{6-[4-(2-TRIFLUOROMETHYLBENZOYL)PIPERAZIN-1-YL]PYRIDAZIN-3-YL}UREA]", "Mouse Microsome 10% remaining @ 10 μM": 13}
{"smiles": "CCCCCNC(=O)Nc1ccc(N2CCN(C(=O)c3ccccc3C(F)(F)F)CC2)nn1", "note": "[1-PENTYL-3-{6-[4-(2-TRIFLUOROMETHYLBENZOYL)PIPERAZIN-1-YL]PYRIDAZIN-3-YL}UREA]", "Mouse Microsome 10% remaining @ 10 μM": 6}
{"smiles": "CC(NC(=O)Nc1ccc(N2CCN(C(=O)c3ccccc3C(F)(F)F)CC2)nn1)c1ccc(F)cc1", "note": "(centres unmarked) [1-[1-(4-Fluorophenyl)ethyl]-3-{6-[4-(2-trifluoromethylbenzoyl)piperazin-1-yl]pyridazin-3-yl}urea]", "Mouse Microsome 10% remaining @ 10 μM": 45}
{"smiles": "O=C(NCCCc1ccc(F)cc1)Nc1ccc(N2CCN(C(=O)c3ccccc3C(F)(F)F)CC2)nn1", "note": "[1-[3-(4-Fluorophenyl)propyl]-3-{6-[4-(2-trifluoromethylbenzoyl)piperazin-1-yl]pyridazin-3-yl}urea]", "Mouse Microsome 10% remaining @ 10 μM": 14}
{"smiles": "CCOC(=O)CCNC(=O)Nc1ccc(N2CCN(C(=O)c3ccccc3C(F)(F)F)CC2)nn1", "note": "[3-(3-{6-[4-(2-TRIFLUOROMETHYLBENZOYL)PIPERAZIN-1-YL]-PYRIDAZIN-3-YL}-UREIDO)PROPIONIC ACID ETHYL ESTER]", "Mouse Microsome 10% remaining @ 10 μM": 18}
{"smiles": "COC(=O)C(CC(C)C)NC(=O)c1ccc(N2CCN(C(=O)c3ccccc3C(F)(F)F)CC2)nn1", "note": "(centres unmarked) [4-METHYL-2-({6-[4-(2-TRIFLUOROMETHYLBENZOYL)PIPERAZIN-1-YL]-PYRIDAZINE-3-CARBONYL}AMINO)PENTANOIC ACID METHYL ESTER]", "Mouse Microsome 10% remaining @ 10 μM": 69}
{"smiles": "CC(C)(C)OC(=O)N1CCN(c2ccc(C(=O)NCCC3CC3)nn2)CC1", "note": "[4-[6-(2-CYCLOPROPYLETHYLCARAMOYL)PYRIDAZIN-3-YL]PIPERAZINE-1-CARBOXYLIC ACID T-BUTYL ESTER]", "Mouse Microsome 10% remaining @ 10 μM": 37}
{"smiles": "CC(C)CCNC(=O)c1ccc(N2CCN(C(=O)OC(C)(C)C)CC2)nn1", "note": "[4-[6-(3-METHYLBUTYLCARAMOYL)PYRIDAZIN-3-YL]PIPERAZINE-1-CARBOXYLIC ACID T-BUTYL ESTER]", "Mouse Microsome 10% remaining @ 10 μM": 11}
{"smiles": "O=C(NCCC1CC1)c1ccc(N2CCN(C(=O)C3CCCCC3)CC2)nn1", "note": "[6-(4-CYCLOHEXANECARBONYLPIPERAZIN-1-YL)PYRIDAZINE-3-CARBOXYLIC ACID (2-CYCLOPROPYLETHYL)AMIDE]", "Mouse Microsome 10% remaining @ 10 μM": 22}
{"smiles": "CC(C)CCNC(=O)c1ccc(N2CCN(C(=O)c3nnn(Cc4ccccc4)c3C(F)(F)F)CC2)nn1", "note": "[6-[4-(1-BENZYL-5-TRIFLUOROMETHYL-1H-[1,2,3]TRIAZOLE-4-CARBONYL)-PIPERAZIN-1-YL]PYRIDAZINE-3-CARBOXYLIC ACID (3-METHYLBUTYL)AMIDE]", "Mouse Microsome 10% remaining @ 10 μM": 61}
{"smiles": "O=C(NCCC1CC1)c1ccc(N2CCN(C(=O)C3(O)CC3)CC2)nn1", "note": "[6-[4-(1-HYDROXYCYCLOPROPANECARBONYL)PIPERAZIN-1-YL]PYRIDAZINE-3-CARBOXYLIC ACID (2-CYCLOPROPYLETHYL)AMIDE]", "Mouse Microsome 10% remaining @ 10 μM": 73}
{"smiles": "CC(C)CCNC(=O)c1ccc(N2CCN(C(=O)c3cnn(C)c3C(F)(F)F)CC2)nn1", "note": "[6-[4-(1-METHYL-5-TRIFLUOROMETHYL-1H-PYRAZOLE-4-CARBONYL)PIPERAZIN-1-YL]-PYRIDAZINE-3-CARBOXYLIC ACID (3-METHYLBUTYL)AMIDE]", "Mouse Microsome 10% remaining @ 10 μM": 15}
{"smiles": "CC(C)CCNC(=O)c1ccc(N2CCN(C(=O)C3(C(F)(F)F)CC3)CC2)nn1", "note": "[6-[4-(1-TRIFLUOROMETHYLCYCLOPROPANECARBONYL)PIPERAZIN-1-YL]-PYRIDAZINE-3-CARBOXYLIC ACID (3-METHYLBUTYL)AMIDE]", "Mouse Microsome 10% remaining @ 10 μM": 26}
{"smiles": "O=C(NCCC1CC1)c1ccc(N2CCN(Cc3ccc(Cl)cc3Cl)CC2)nn1", "note": "[6-[4-(2,4-DICHLOROBENZYL)-PIPERAZIN-1-YL]PYRIDAZINE-3-CARBOXYLIC ACID (2-CYCLOPROPYLETHYL)AMIDE]", "Mouse Microsome 10% remaining @ 10 μM": 8}
{"smiles": "O=C(NCCC1CC1)c1ccc(N2CCN(C(=O)c3cc(C(F)(F)F)ccc3C(F)(F)F)CC2)nn1", "note": "[6-[4-(2,5-BIS-TRIFLUOROMETHYLBENZOYL)PIPERAZIN-1-YL]PYRIDAZINE-3-CARBOXYLIC ACID (2-CYCLOPROPYLETHYL)AMIDE]", "Mouse Microsome 10% remaining @ 10 μM": 6}
{"smiles": "O=C(NCCC1CC1)c1ccc(N2CCN(Cc3cc(Cl)ccc3Cl)CC2)nn1", "note": "[6-[4-(2,5-DICHLOROBENZYL)PIPERAZIN-1-YL]PYRIDAZINE-3-CARBOXYLIC ACID (2-CYCLOPROPYLETHYL)AMIDE]", "Mouse Microsome 10% remaining @ 10 μM": 8}
{"smiles": "CC(C)CCNC(=O)c1ccc(N2CCN(C(=O)c3ccccc3N)CC2)nn1", "note": "[6-[4-(2-AMINOBENZOYL)PIPERAZIN-1-YL]PYRIDAZINE-3-CARBOXYLIC ACID (3-METHYLBUTYL)AMIDE]", "Mouse Microsome 10% remaining @ 10 μM": 23}
{"smiles": "O=C(NCCC1CC1)c1ccc(N2CCN(Cc3ccc(F)cc3Cl)CC2)nn1", "note": "[6-[4-(2-CHLORO-4-FLUOROBENZYL)PIPERAZIN-1-YL]PYRIDAZINE-3-CARBOXYLIC ACID (2-CYCLOPROPYLETHYL)AMIDE]", "Mouse Microsome 10% remaining @ 10 μM": 11}
{"smiles": "CCC(CC)C(=O)N1CCN(c2ccc(C(=O)NCCC3CC3)nn2)CC1", "note": "[6-[4-(2-ETHYLBUTYRYL)PIPERAZIN-1-YL]PYRIDAZINE-3-CARBOXYLIC ACID (2-CYCLOPROPYLETHYL)AMIDE]", "Mouse Microsome 10% remaining @ 10 μM": 36}
{"smiles": "CC(C)CCNC(=O)c1ccc(N2CCN(C(=O)c3ccccc3[N+](=O)[O-])CC2)nn1", "note": "[6-[4-(2-NITROBENZOYL)PIPERAZIN-1-YL]PYRIDAZINE-3-CARBOXYLIC ACID (3-METHYLBUTYL)AMIDE]", "Mouse Microsome 10% remaining @ 10 μM": 8}
{"smiles": "O=C(NCC1CC1)c1ccc(N2CCN(C(=O)c3ccccc3C(F)(F)F)CC2)nn1", "note": "[6-[4-(2-TRIFLUOROMETHYLBENZOYL)PIPERAZIN-1-YL]PYRIDAZINE-3-CARBOXYLIC ACID CYCLOPROPYLMETHYLAMIDE]", "Mouse Microsome 10% remaining @ 10 μM": 49}
{"smiles": "O=C(NCCc1ccc(F)cc1F)c1ccc(N2CCN(C(=O)c3ccccc3C(F)(F)F)CC2)nn1", "note": "[6-[4-(2-TRIFLUOROMETHYLBENZOYL)PIPERAZIN-1-YL]PYRIDAZINE-3-CARBOXYLIC ACID [2-(2,4-DIFLUOROPHENYL)ETHYL]AMIDE]", "Mouse Microsome 10% remaining @ 10 μM": 5}
{"smiles": "COc1ccc(CCNC(=O)c2ccc(N3CCN(C(=O)c4ccccc4C(F)(F)F)CC3)nn2)cc1", "note": "[6-[4-(2-TRIFLUOROMETHYLBENZOYL)PIPERAZIN-1-YL]PYRIDAZINE-3-CARBOXYLIC ACID [2-(4-METHOXYPHENYL)ETHYL]AMIDE]", "Mouse Microsome 10% remaining @ 10 μM": 7}
{"smiles": "O=C(NCCC1CC1)c1ccc(N2CCN(Cc3ccccc3C(F)(F)F)CC2)nn1", "note": "[6-[4-(2-TRIFLUOROMETHYLBENZYL)PIPERAZIN-1-YL]PYRIDAZINE-3-CARBOXYLIC ACID (2-CYCLOPROPYLETHYL)AMIDE]", "Mouse Microsome 10% remaining @ 10 μM": 12}
{"smiles": "O=C(NCCC1CC1)c1ccc(N2CCN(C(=O)c3ccoc3C(F)(F)F)CC2)nn1", "note": "[6-[4-(2-TRIFLUOROMETHYLFURAN-3-CARBONYL)PIPERAZIN-1-YL]PYRIDAZINE-3-CARBOXYLIC ACID (2-CYCLOPROPYLETHYL)AMIDE]", "Mouse Microsome 10% remaining @ 10 μM": 7}
{"smiles": "O=C(NCCc1ccccc1)c1ccc(N2CCN(C(=O)c3ccccc3C(F)(F)F)CC2)nn1", "note": "[6-[4-(2-Trifluoromethylbenzoyl)piperazin-1-yl]pyridazine-3-carboxylic acid phenethylamide]", "Mouse Microsome 10% remaining @ 10 μM": 0}
{"smiles": "CC(C(=O)N1CCN(c2ccc(C(=O)NCCC3CC3)nn2)CC1)(C(F)(F)F)C(F)(F)F", "note": "[6-[4-(3,3,3-TRIFLUORO-2-METHYL-2-TRIFLUOROMETHYLPROPIONYL)PIPERAZIN-1-YL]PYRIDAZINE-3-CARBOXYLIC ACID (2-CYCLOPROPYLETHYL)AMIDE]", "Mouse Microsome 10% remaining @ 10 μM": 8}
{"smiles": "CC(C)CCNC(=O)c1ccc(N2CCN(C(=O)c3c(C(F)(F)F)nnn3Cc3ccccc3)CC2)nn1", "note": "[6-[4-(3-BENZYL-5-TRIFLUOROMETHYL-3H-[1,2,3]TRIAZOLE-4-CARBONYL)PIPERAZIN-1-YL]PYRIDAZINE-3-CARBOXYLIC ACID (3-METHYLBUTYL)AMIDE]", "Mouse Microsome 10% remaining @ 10 μM": 61}
{"smiles": "CC(C)CCNC(=O)c1ccc(N2CCN(C(=O)C(C)CC(F)(F)F)CC2)nn1", "note": "(centres unmarked) [6-[4-(4,4,4-TRIFLUORO-2-METHYLBUTYRYL)PIPERAZIN-1-YL]PYRIDAZINE-3-CARBOXYLIC ACID (3-METHYLBUTYL)AMIDE]", "Mouse Microsome 10% remaining @ 10 μM": 19}
{"smiles": "O=C(NCCC1CC1)c1ccc(N2CCN(C(=O)CC(O)(C(F)(F)F)C(F)(F)F)CC2)nn1", "note": "[6-[4-(4,4,4-TRIFLUORO-3-HYDROXY-3-TRIFLUOROMETHYLBUTYRYL)PIPERAZIN-1-YL]PYRIDAZINE-3-CARBOXYLIC ACID (2-CYCLOPROPYLETHYL)AMIDE]", "Mouse Microsome 10% remaining @ 10 μM": 8}
